Laboratory results taken from patent US20110217324A1, “INHIBITORS OF ANTIGEN PRESENTATION BY MHC CLASS II MOLECULES AND METHODS OF USE THEREOF” (priority 2007, published 2011).
Numbered stars: 1 amine (or outer) side, 2 acyl side, 3 side chain; on linkers, the order of the positions; unused ones are H or OH. Square brackets hold non-standard residues; d marks the D form. Peptide text beside a SMILES is read from it. X1 = O=C(C(Cc1ccc2[nH]c3ccccc3c2c1)N[*:1])[*:2]; X5 = O=C(C(Cc1cccc2[nH]ccc12)N[*:1])[*:2]; Oic = O=C(O)[C@@H]1C[C@@H]2CCCC[C@@H]2N1; Tic = O=C(O)[C@@H]1Cc2ccccc2CN1; Cit = NC(=O)NCCC[C@H](N)C(=O)O; Chg = N[C@H](C(=O)O)C1CCCCC1; Tle = CC(C)(C)[C@H](N)C(=O)O; Pip = O=C(O)[C@@H]1CCCCN1; Abu = CC[C@H](N)C(=O)O; βAla = NCCC(=O)O

Target: DRB1*1501 (Homo sapiens, UniProt P01903+P01911)
Test: not given
Details: DR2 haplotype; cited from earlier work

| Compound | binding affinity to DRB1*1501 molecules |
| --- | --- |
| MBP (84-102): immunodominant myelin basic protein (84-102) peptide (DPGSRPHLIRLFSRDAPGR; Myelin basic protein; UniProt P02686 84-102, looked up, fragment) | bind with high affinity |

Target: T1, MHC DR2 (DRB1*1501/DRA*0101) (Homo sapiens, UniProt P01903+P01911)
T1 construct: endogenous in cells; host or cells: EBV homozygous (B lymphoblastoid) cell lines
Test: HLA II Binding Assay (competition with biotinylated reference peptide)
Details: purified HLA-DR, biotinylated reference compound for DRB1*1501, 37° C. 24 h to 72 h; read-out: Inhibition of peptide binding IC50 (against MHC DR2 (DRB1*1501/DRA*0101))
Description: EBV homozygous cell lines are used as sources of human HLA class II molecules. […] The supernatant from lysed cells after centrifugation (100,000 g for 1 h) is applied to Sepharose 4B and protein A-Sepharose 4B columns and then to the specific antibody column. […] Fractions are immediately neutralized to pH 7 with 2 mM Tris-HCl (pH 6.8) and extensively dialyzed against 1 mM n-dodecyl β-D-maltoside, 150 mM NaCl, 10 mM phosphate (pH 7) buffer.
Samples (100 μl per well) are incubated in 96-wells polypropylene plates at 37° C. for 24 h to 72 h. After neutralization with 50 μl of 450 mM Tris HCl pH 7.5, 0.003% thimerosal, 0.3% BSA, 1 mM n-dodecyl β-D-maltoside buffer, samples are applied to 96-well maxisorp ELISA plates previously coated with 10 μg/ml L243 Mab and saturated with 100 mM Tris HCl pH=7.5, 0.3% BSA, and 0.003% thimerosal buffer. Samples are allowed to bind to the antibody-coated plates for 2 h at room temperature. Bound biotinylated compound is detected by incubating streptavidin-alkaline phosphatase conjugate, and after washings, by the addition of 4-methylumbelliferyl phosphate substrate. […] Maximal binding is determined by incubating the biotinylated peptide with the MHC class II molecule in the absence of competitor. Binding specificity is assessed by adding an excess of non-biotinylated peptide.

| Compound | IC50 |
| --- | --- |
| CC(=O)N[C@H](C(=O)N[C@@H](CCCNC(=N)N)C(=O)N1CCCC[C@H]1C(=O)N[C@@H](Cc1ccccc1)C(=O)N1CCCC[C@H]1C(N)=O)C1CCCCC1 [Ac(Chg)R(homo Pro)F(homo Pro)] (Ac-[Chg]R[Pip]F[Pip]-NH2) | 100 to 1000 nM |
| CC(=O)N[C@H](C(=O)N[C@H](C(=O)N[C@@H](CCCNC(=N)N)C(=O)N1Cc2ccccc2C[C@H]1C(=O)NC(Cc1ccc2[nH]c3ccccc3c2c1)C(N)=O)C1CCCCC1)C(C)C (stereo partly shown) [AcV(Chg)R(Tic)-(3′-Carbazolyl Ala)] (Ac-V[Chg]R[Tic][X1]-NH2) | 100 to 1000 nM |
| CC(=O)N[C@H](C(=O)N[C@@H](CCCNC(=N)N)C(=O)N1Cc2ccccc2C[C@H]1C(=O)NC(Cc1cccc2[nH]ccc12)C(N)=O)C1CCCCC1 (stereo partly shown) [Ac(Chg)R(Tic)-(4′-Indolyl Ala)] | 10 to 100 nM |
| CC(=O)N[C@H](C(=O)N[C@H](C(=O)N[C@@H](CCCNC(=N)N)C(=O)N1Cc2ccccc2C[C@H]1C(=O)NC(Cc1cccc2[nH]ccc12)C(N)=O)C1CCCCC1)C(C)C (stereo partly shown) [AcV(Chg)R(Tic)-(4′-Indolyl Ala)] (Ac-V[Chg]R[Tic][X5]-NH2) | 1 to 10 nM |
| CC(=O)N[C@H](C(=O)N[C@H](C(=O)N[C@@H](CCCNC(=N)N)C(=O)N1CCCC[C@H]1C(=O)N[C@@H](Cc1ccccc1)C(N)=O)C1CCCCC1)C(C)C [AcV(Chg)R(homo Pro)F] (Ac-V[Chg]R[Pip]F-NH2) | 10 to 100 nM |
| CC(=O)N[C@H](C(=O)N[C@H](C(=O)N[C@@H](CCCNC(=N)N)C(=O)N1[C@H](C(=O)N[C@@H](Cc2ccccc2)C(N)=O)C[C@@H]2CCCC[C@@H]21)C1CCCCC1)C(C)C [AcV(Chg)R(Oic)F] (Ac-V[Chg]R[Oic]F-NH2) | 100 to 1000 nM |
| CC(=O)N[C@H](C(=O)N[C@@H](CCCNC(=N)N)C(=O)N1Cc2ccccc2C[C@H]1C(=O)N[C@@H](Cc1c[nH]c2ccccc12)C(N)=O)C1CCCCC1 [Ac(Chg)R(Tic)(Trp)] (Ac-[Chg]R[Tic]W-NH2) | 10 to 100 nM |

The next lines start with the values.

| IC50 | Compound |
| --- | --- |
| 1 to 10 nM | CO[C@H](C)[C@H](NC(C)=O)C(=O)N[C@H](C(=O)N[C@@H](CCCNC(=N)N)C(=O)N1Cc2ccccc2C[C@H]1C(=O)N[C@@H](Cc1ccccc1)C(N)=O)C1CCCCC1 [Ac(T(OMe))(Chg)R(Tic)F] (Ac-T(Me)[Chg]R[Tic]F-NH2) |
| 1 to 10 nM | CC(C)[C@H](NC(=O)CCN)C(=O)N[C@H](C(=O)N[C@@H](CCCNC(N)=O)C(=O)N1Cc2ccccc2C[C@H]1C(=O)N[C@@H](Cc1ccccc1)C(N)=O)C1CCCCC1 [(NH2-Beta Ala)V(Chg)(Cit)(Tic)F] (H-[βAla]V[Chg][Cit][Tic]F-NH2) |
| 10 to 100 nM | CC(=O)N[C@H](C(=O)N[C@H](C(=O)N[C@@H](Cc1c[nH]cn1)C(=O)N1Cc2ccccc2C[C@H]1C(=O)N[C@@H](Cc1ccccc1)C(N)=O)C1CCCCC1)C(C)C [AcV(Chg)H(Tic)F] (Ac-V[Chg]H[Tic]F-NH2) |
| 1 to 10 nM | CC[C@H](N)C(=O)N[C@H](C(=O)N[C@H](C(=O)N[C@@H](CCCNC(N)=O)C(=O)N1Cc2ccccc2C[C@H]1C(=O)N[C@@H](Cc1ccccc1)C(N)=O)C1CCCCC1)C(C)C [(NH2-Abu)V(Chg)(Cit)(Tic)F] (H-[Abu]V[Chg][Cit][Tic]F-NH2) |
| 1 to 10 nM | CC[C@H](N)C(=O)N[C@H](C(=O)N[C@H](C(=O)N[C@@H](CCCNC(=N)N)C(=O)N1Cc2ccccc2C[C@H]1C(=O)N[C@@H](Cc1ccccc1)C(N)=O)C1CCCCC1)C(C)C [(NH2-Abu)V(Chg)R(Tic)F] (H-[Abu]V[Chg]R[Tic]F-NH2) |
| 10 to 100 nM | CC(=O)N[C@H](C(=O)N[C@H](C(=O)N[C@@H](CCCNC(=N)N)C(=O)N1Cc2ccccc2C[C@H]1C(=O)N[C@@H](Cc1ccccc1)C(=O)O)C1CCCCC1)C(C)C [AcV(Chg)R(Tic)F-COOH] (Ac-V[Chg]R[Tic]F-OH) |
| 1 to 10 nM | CC(=O)N[C@H](C(=O)N[C@H](C(=O)N[C@@H](CCCNC(=N)N)C(=O)N1Cc2ccccc2C[C@H]1C(=O)N[C@@H](Cc1ccccc1)C(N)=O)C1CCCCC1)C(C)(C)C [Ac(t-BuG)(Chg)R(Tic)F] (Ac-[Tle][Chg]R[Tic]F-NH2) |

System: animal models of autoimmune disease
Test: not given
Details: in vivo; cited from earlier work

| Compound | activity in animal models of autoimmune disease |
| --- | --- |
| a(Cha)AAAKTAAAAa-NH2 | did not show activity |

Target: DRB5*0101 (Homo sapiens, UniProt P01903+Q30154)
Test: not given
Details: DR2 haplotype; cited from earlier work

| Compound | binding affinity to DRB5*0101 molecules |
| --- | --- |
| MBP (84-102): immunodominant myelin basic protein (84-102) peptide (DPGSRPHLIRLFSRDAPGR; Myelin basic protein; UniProt P02686 84-102, looked up, fragment) | bind with high affinity |

System: DR molecules
Test: not given
Details: cited from earlier work

| Compound | binding to DR molecules |
| --- | --- |
| a(Cha)AAAKTAAAAa-NH2 | binds DR molecules |

System: T cell proliferation
Test: not given
Details: cited from earlier work

| Compound | suppression of T cell proliferation in response to protein antigens |
| --- | --- |
| a(Cha)AAAKTAAAAa-NH2 | did not supress T cell proliferation |
